Experimental data reported in patent publication US11739098B2 (BRISTOL-MYERS SQUIBB COMPANY, priority 2017, dated 2023).

Columns and labels:
Type in all cases: cell-based
human TLR8 = biological target: T1, human TLR8 (Homo sapiens, UniProt Q9NR97); assay: TLR8 inhibition reporter assay (HEK-Blue cells, SEAP reporter, R848 stimulation); conditions: HEK-Blue cells overexpressing human TLR8, SEAP reporter, R848 15.9 μM
T1 construct: host or cells: HEK-Blue cells (HEK293-derived reporter line)
T1 sequence (Q9NR97 27-1041): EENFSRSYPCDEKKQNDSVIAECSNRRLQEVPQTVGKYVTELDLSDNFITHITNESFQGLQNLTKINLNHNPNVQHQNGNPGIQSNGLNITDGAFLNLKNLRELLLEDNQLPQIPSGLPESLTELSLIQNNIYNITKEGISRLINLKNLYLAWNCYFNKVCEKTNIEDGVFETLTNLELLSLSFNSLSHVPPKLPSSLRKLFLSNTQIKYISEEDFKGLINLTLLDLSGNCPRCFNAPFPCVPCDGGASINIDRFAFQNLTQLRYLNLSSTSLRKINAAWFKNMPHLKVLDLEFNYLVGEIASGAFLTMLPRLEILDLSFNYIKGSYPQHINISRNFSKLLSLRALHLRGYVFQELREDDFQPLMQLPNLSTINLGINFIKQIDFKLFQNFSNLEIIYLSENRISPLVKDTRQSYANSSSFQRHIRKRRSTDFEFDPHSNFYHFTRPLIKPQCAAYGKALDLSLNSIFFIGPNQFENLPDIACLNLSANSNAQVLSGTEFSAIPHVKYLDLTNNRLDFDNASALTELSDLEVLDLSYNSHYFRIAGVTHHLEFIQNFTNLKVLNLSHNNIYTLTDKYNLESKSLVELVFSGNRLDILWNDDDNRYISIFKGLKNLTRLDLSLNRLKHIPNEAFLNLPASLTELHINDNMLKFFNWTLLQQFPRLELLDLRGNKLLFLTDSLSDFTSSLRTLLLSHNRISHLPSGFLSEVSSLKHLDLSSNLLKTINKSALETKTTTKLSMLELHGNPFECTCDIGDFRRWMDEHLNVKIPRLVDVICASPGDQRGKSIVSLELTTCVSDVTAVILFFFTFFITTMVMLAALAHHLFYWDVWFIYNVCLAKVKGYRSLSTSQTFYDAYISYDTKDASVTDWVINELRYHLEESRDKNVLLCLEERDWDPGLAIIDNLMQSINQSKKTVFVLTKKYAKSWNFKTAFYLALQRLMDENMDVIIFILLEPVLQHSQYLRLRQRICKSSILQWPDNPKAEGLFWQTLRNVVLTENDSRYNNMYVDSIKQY
Summary of the method: (§1)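 Agonists (final): TLR7 gardiquimod 7.5 μM; TLR8 R848 15.9 μM; TLR9 ODN2006 5 nM. HEK-Blue reporter cells, 30 min RT compound pre-incubation, 0.05 nM–50 μM dose range, 22 h at 37 °C, colorimetric SEAP detection medium. % inhibition relative to agonist+DMSO and known-inhibitor wells.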

human TLR9 = biological target: T2, human TLR9 (Homo sapiens, UniProt Q9NR96); assay: TLR9 inhibition reporter assay (HEK-Blue cells, SEAP reporter, ODN2006 stimulation); conditions: HEK-Blue cells overexpressing human TLR9, SEAP reporter, ODN2006 5 nM
T2 construct: host or cells: HEK-Blue cells (HEK293-derived reporter line)
T2 sequence (Q9NR96 26-1032): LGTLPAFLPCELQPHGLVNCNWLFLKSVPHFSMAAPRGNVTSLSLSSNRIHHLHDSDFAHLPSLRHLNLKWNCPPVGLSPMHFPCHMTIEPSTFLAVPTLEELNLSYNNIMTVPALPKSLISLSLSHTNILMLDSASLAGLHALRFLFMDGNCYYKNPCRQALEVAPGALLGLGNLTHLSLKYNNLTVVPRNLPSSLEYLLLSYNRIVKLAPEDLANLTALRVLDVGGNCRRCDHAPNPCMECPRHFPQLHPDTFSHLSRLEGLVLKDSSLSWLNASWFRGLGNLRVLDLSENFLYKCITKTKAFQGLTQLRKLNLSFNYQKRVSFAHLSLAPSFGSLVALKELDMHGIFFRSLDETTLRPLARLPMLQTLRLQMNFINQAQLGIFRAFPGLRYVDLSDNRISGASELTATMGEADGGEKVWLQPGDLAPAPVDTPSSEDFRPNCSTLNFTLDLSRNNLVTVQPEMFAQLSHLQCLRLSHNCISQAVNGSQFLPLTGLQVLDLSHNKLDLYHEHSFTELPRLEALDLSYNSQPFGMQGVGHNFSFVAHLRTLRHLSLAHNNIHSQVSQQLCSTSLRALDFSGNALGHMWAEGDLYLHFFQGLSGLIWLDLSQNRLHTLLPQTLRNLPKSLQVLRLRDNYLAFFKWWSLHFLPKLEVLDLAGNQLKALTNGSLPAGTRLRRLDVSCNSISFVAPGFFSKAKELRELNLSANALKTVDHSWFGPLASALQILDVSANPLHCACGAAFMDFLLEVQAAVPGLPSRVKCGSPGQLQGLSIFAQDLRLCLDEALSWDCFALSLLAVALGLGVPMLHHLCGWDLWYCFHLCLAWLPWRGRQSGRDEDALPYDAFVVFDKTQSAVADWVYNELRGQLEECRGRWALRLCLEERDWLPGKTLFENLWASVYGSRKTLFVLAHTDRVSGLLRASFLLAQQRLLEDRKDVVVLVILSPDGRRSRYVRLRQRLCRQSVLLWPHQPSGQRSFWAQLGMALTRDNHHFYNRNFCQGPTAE
Summary of the method: as §1

human TLR7 = biological target: T3, human TLR7 (Homo sapiens, UniProt Q9NYK1); assay: TLR7 inhibition reporter assay (HEK-Blue cells, SEAP reporter, gardiquimod stimulation); conditions: HEK-Blue cells overexpressing human TLR7, SEAP reporter, gardiquimod 7.5 μM
T3 construct: host or cells: HEK-Blue cells (HEK293-derived reporter line)
T3 sequence (Q9NYK1 27-1049): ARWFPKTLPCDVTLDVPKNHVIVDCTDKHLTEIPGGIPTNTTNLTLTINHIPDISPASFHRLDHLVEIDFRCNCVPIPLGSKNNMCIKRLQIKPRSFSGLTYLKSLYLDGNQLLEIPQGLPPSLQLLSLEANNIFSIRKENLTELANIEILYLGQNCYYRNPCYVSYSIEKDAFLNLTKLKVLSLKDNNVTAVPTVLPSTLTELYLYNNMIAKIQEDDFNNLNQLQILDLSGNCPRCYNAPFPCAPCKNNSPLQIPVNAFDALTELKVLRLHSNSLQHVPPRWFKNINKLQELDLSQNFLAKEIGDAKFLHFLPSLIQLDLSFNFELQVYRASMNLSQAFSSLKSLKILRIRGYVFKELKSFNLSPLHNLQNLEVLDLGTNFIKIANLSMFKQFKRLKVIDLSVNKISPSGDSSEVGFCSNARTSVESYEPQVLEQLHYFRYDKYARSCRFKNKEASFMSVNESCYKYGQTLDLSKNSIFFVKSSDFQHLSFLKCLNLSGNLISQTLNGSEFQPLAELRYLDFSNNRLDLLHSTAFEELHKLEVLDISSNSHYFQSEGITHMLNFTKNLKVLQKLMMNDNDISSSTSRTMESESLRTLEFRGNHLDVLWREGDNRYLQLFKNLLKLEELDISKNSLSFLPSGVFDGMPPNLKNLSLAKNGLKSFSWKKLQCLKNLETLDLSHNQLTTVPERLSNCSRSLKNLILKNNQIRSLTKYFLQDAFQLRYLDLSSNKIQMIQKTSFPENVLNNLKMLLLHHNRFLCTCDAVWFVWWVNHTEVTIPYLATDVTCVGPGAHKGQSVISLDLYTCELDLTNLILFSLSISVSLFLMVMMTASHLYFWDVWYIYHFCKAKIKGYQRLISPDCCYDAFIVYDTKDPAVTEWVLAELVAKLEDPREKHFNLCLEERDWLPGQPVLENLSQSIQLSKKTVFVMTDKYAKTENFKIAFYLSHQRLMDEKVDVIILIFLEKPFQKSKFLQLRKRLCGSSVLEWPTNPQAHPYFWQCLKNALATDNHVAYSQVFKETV
Summary of the method: as §1

Row | SMILES | IC50 (human TLR8) [µM] | IC50 (human TLR9) [µM] | IC50 (human TLR7) [µM]
1 | CCN(CC)C(=O)C1CCCN(CC(=O)N2CCC(c3ccc4[nH]c(-c5ccnc6[nH]ccc56)c(C(C)C)c4c3)CC2)C1 (stereo not drawn) [Example 568, N,N-diethyl-1-(2-(4-(3-isopropyl-2-(1H-pyrrolo[2,3-b]pyridin-4-yl)-1H-indol-5-yl)piperidin-1-yl)-2-oxoethyl) piperidine-3-carboxamide] | < 0.1 | 1 to 50 | < 0.1
2 | COc1cc(-c2[nH]c3ccc(C4CCN(CCS(C)(=O)=O)CC4)cc3c2C(C)C)cc2ncnn12 [Example 797, 7-(3-isopropyl-5-(1-(2-(methylsulfonyl)ethyl)piperidin-4-yl)-1H-indol-2-yl)-5-methoxy-[1,2,4]triazolo[1,5-a]pyridine] | < 0.1 | 1 to 50 | < 0.1
3 | CC(C)c1c(-c2cn(C)c3ncccc23)[nH]c2ccc(C3CCN(C4CCOCC4)CC3)cc12 [Example 694, 3-(3-isopropyl-5-(1-(tetrahydro-2H-pyran-4-yl)piperidin-4-yl)-1H-indol-2-yl)-1-methyl-1H-pyrrolo[2,3-b]pyridine] | < 0.1 | 1 to 50 | < 0.1
4 | Cc1cc(-c2[nH]c3ccc(C4CCN(CC(C)(C)O)CC4)cc3c2C(C)C)cc2ncnn12 [Example 756, 1-(4-(3-isopropyl-2-(5-methyl-[1,2,4]triazolo[1,5-a]pyridin-7-yl)-1H-indol-5-yl)piperidin-1-yl)-2-methylpropan-2-ol] | < 0.1 | 1 to 50 | < 0.1
5 | CCc1c(-c2c[nH]c3ncccc23)[nH]c2ccc(C3CCNCC3)cc12 [Example 243, 3-(3-ethyl-5-(piperidin-4-yl)-1H-indol-2-yl)-1H-pyrrolo[2,3-b]pyridine] | < 0.1 | 0.1 to 1 | < 0.1
6 | CNC(=O)CN1CCC(c2ccc3[nH]c(-c4cc(C)c5nc(C(=O)N(C)CCO)cn5c4)c(C(C)C)c3c2)CC1 [Example 345, N-(2-hydroxyethyl)-6-(3-isopropyl-5-(1-(2-(methylamino)-2-oxoethyl)piperidin-4-yl)-1H-indol-2-yl)-N,8-dimethylimidazo[1,2-a]pyridine-2-carboxamide] | 0.1 to 1 | 1 to 50 | < 0.1

Further lines, results first:

Row | IC50 (human TLR8) [µM] | IC50 (human TLR9) [µM] | IC50 (human TLR7) [µM] | SMILES
7 | 0.1 to 1 | 1 to 50 | < 0.1 | Cc1cc2ncccc2cc1-c1[nH]c2ccc(C3CCNCC3)cc2c1C(C)C [Example 140, 6-(3-isopropyl-5-(piperidin-4-yl)-1H-indol-2-yl)-7-methylquinoline]
8 | 1 to 50 | 1 to 50 | 1 to 50 | CC(C)c1c(-c2ccnc3c2NC(=O)CO3)[nH]c2ccc(C3CCNCC3)cc12 [Example 68, 8-(3-isopropyl-5-(piperidin-4-yl)-1H-indol-2-yl)-1H-pyrido[2,3-b][1,4]oxazin-2(3H)-one]
9 | < 0.1 | 1 to 50 | < 0.1 | CC(C)c1c(-c2cc(C(F)(F)F)c3nccn3c2)[nH]c2ccc(C3CCN(C(C)C)CC3)cc12 [Example 942, 6-(3-isopropyl-5-(1-isopropylpiperidin-4-yl)-1H-indol-2-yl)-8-(trifluoromethyl)imidazo[1,2-a]pyridine]
10 | < 0.1 | 1 to 50 | < 0.1 | Cc1cc(-c2[nH]c3ccc(C4CCN(CCCC(F)(F)F)CC4)cc3c2C(C)C)cn2nnnc12 [Example 963, 6-(3-isopropyl-5-(1-(4,4,4-trifluorobutyl)piperidin-4-yl)-1H-indol-2-yl)-8-methyltetrazolo[1,5-a]pyridine]
11 | > 3.13 | 1 to 50 | 1 to 50 | CC(C)c1c(-c2cnc3ccnn3c2)[nH]c2ccc(C3CCN(CC(=O)N(C)C)CC3)cc12 [Example 359, 2-(4-(3-isopropyl-2-(pyrazolo[1,5-a]pyrimidin-6-yl)-1H-indol-5-yl)piperidin-1-yl)-N,N-dimethylacetamide]
12 | 0.1 to 1 | 1 to 50 | 1 to 50 | Cc1cc(-c2[nH]c3ccc(C4CCN(Cc5ccn(C)n5)CC4)cc3c2C(C)C)cn2nncc12 [Example 882, 6-(3-isopropyl-5-(1-((1-methyl-1H-pyrazol-3-yl)methyl)piperidin-4-yl)-1H-indol-2-yl)-4-methyl-[1,2,3]triazolo[1,5-a]pyridine]
13 | < 0.1 | 1 to 50 | < 0.1 | CC(C)c1c(-c2ccnc3[nH]ncc23)[nH]c2ccc(C3CCN(C(=O)CN(C)C)CC3)cc12 [Example 449, 2-(dimethylamino)-1-(4-(3-isopropyl-2-(1H-pyrazolo[3,4-b]pyridin-4-yl)-1H-indol-5-yl)piperidin-1-yl)ethanone]
14 | < 0.1 | 0.1 to 1 | < 0.1 | Cc1cc(-c2[nH]c3ccc(C4CCN(C(=O)CN(C)C)CC4)cc3c2C(C)C)cc2cncn12 [Example 531, 2-(dimethylamino)-1-(4-(3-isopropyl-2-(5-methylimidazo[1,5-a]pyridin-7-yl)-1H-indol-5-yl)piperidin-1-yl)ethan-1-one]
